In patent US12053506B2, “Romo1-derived antimicrobial peptides and variants thereof” (priority 2019, dated 2024):
Read-outs that look alike come from different tables or passages of the source. No end group written: not given here.

Columns and labels:
[1] = test system: methicillin-resistant Staphylococcus aureus (ATCC 33591); settings: for MBC MRSA: Tables 11-15, no unit printed
[2] = test system: multidrug-resistant Pseudomonas aeruginosa; settings: 4 h
In short: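 The multidrug-resistant strains were patient isolates from Korea University Anam Hospital, grown in TSB at 37 °C and diluted in SP buffer (10 mM sodium phosphate, 1% TSB). Peptide (0–300 μg/ml) was incubated with 1×10^5 CFU/ml for 1 h at 37 °C. Samples were then plated on TS agar and colony formation was checked after 18 h at 37 °C.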

[3] = test system: Multidrug-resistant A. baumannii; settings: Multidrug-resistant
Procedure: (§1) The minimum bactericidal concentration assay was the same as the method used in Example 1.
(§2) Specifically, each type of bacteria was cultured in 3% (w/v) TSB (Tryptic Soy Broth) liquid medium at 37° C. and 200 rpm for 4 hours, and then further cultured under the same conditions for 3 hours to a concentration of 5×10^6 CFU/ml. Strain solutions were prepared by diluting each of the […] of 2×10^5 CFU/ml.
(§3) Then, the KU-5878 peptide at varying concentrations (0 μg/ml to 300 μg/ml) was dispensed into each well of a 96-well microplate, and 100 μl (1×10^5 CFU/ml) of each of the prepared strain solutions was added thereto, mixed therewith, and allowed to react with the peptide in an incubator at 37° C. for 1 hour.
(§4) In addition, 10 μl of each reaction solution of the peptide and the strain was plated on the TS agar plate at a constant size, and incubated in an incubator at 37° C. for 18 hours, and then colony formation on the plate was checked.
(§5) Meanwhile, the multidrug-resistant Pseudomonas aeruginosa, multidrug-resistant Acinetobacter and multidrug-resistant Klebsiella in Table 2 below were bacteria isolated from patients at Korea University Anam Hospital. […] Then, these bacteria were used in the experiment.

[4] = test system: Multidrug-resistant K. pneumoniae; settings: Multidrug-resistant
Procedure: as §1, §2, §3, §4, §5

[5] = test system: Staphylococcus aureus, Pseudomonas aeruginosa, methicillin-resistant Staphylococcus aureus and multidrug-resistant Pseudomonas aeruginosa; experiment: Bacteria remaining in the blood of intravenously infected mice; assay type: in vivo, mice (C57BL/6); settings: 10 mg/kg intravenous 1 hour after infection; blood collected 40 minutes after injection; compared with LL-37, magainin 2, daptomycin
Procedure: Specifically, Staphylococcus aureus, Pseudomonas aeruginosa, methicillin-resistant Staphylococcus aureus and multidrug-resistant Pseudomonas aeruginosa was cultured in 3% (w/v) TSB liquid medium at 37° C. and 200 rpm for 4 hours, and then further cultured under the same conditions for 3 hours to a concentration of 5×10^9 CFU/ml. Strain solutions were prepared by diluting each of the further cultured strains with PBS solution to a final concentration of 1×10^5 CFU/μl.
Next, 100 μl of each strain solution was injected intravenously (IV) into the tail vein of each of 10-week-old male mice (C57BL/6). After one hour, KU-5878 was intravenously injected at a concentration of 10 mg/kg. As a control, PBS was intravenously injected at a concentration of 10 mg/kg, and as a positive control, LL-37, magainin 2, or daptomycin was intravenously injected at a concentration of 10 mg/kg.
40 minutes after the intravenous injection of each drug, about 1 cm from the tail end of each mouse was cut using surgical scissors, and 10 μl of the blood at the end of the cut was collected and diluted in PBS. The diluted blood sample was plated on a previously prepared TSB agar plate and incubated in an incubator at 37° C. for 18 hours, and the formed colonies were counted for comparison.

[6] = test system: Staphylococcus aureus, Pseudomonas aeruginosa, Klebsiella pneumoniae and Acinetobacter baumannii; experiment: Survival rate of mice injected with gram-positive or gram-negative bacteria; assay type: in vivo, mice (C57BL/6); settings: FIG. 3, bacteria only 0 to 20%
From the text: Following Example 2-2, in order to evaluate the antibacterial activity of KU-5878 peptide in vivo, Staphylococcus aureus as gram-positive bacteria, Pseudomonas aeruginosa, Klebsiella pneumoniae and Acinetobacter baumannii as gram-negative bacteria, and multidrug-resistant Pseudomonas aeruginosa, methicillin-resistant Staphylococcus aureus, multidrug-resistant Klebsiella pneumoniae and multidrug-resistant Acinetobacter baumannii as multidrug-resistant bacteria were selected, and the following experiment was performed.
The experimental method is as described in Example 2-2 above. For a positive group, each type of the bacteria was injected into mice, and after 24 hours, 30 mg/kg of imipenem, a carbapenem-based antibiotic, was injected intraperitoneally (IP), and then the same amount of imipenem was administered intraperitoneally a total of 4 times at 12-hour intervals. The survival rates of each control group and the experimental group were measured at 24-hour intervals.

[7] = test system: mouse red blood cells; assay type: cell-based
Procedure: Red blood cells were diluted with PBS, centrifuged 3 times at 900 g for 10 minutes, and washed. 100 μl of the diluted red blood cell solution (10% v/v PBS) was dispensed into each well of a 96-well microplate, and KU-5878, KU-5878-K4, KU-5878-K4-D, melittin, magainin 2 or daptomycin was added to each well which was then filled with PBS to 200 μl, followed by reaction by incubation at 37° C. for 1 hour. Then, the supernatant of the reaction solution was separated, and the absorbance at a wavelength of 550 nm was measured using a spectrophotometer. As control, PBS and 0.1% Triton X-100 (Triton X-100) solution were used.
Based on the results of measurement of the absorbance, the degree of red blood cell destruction was calculated according to Equation 1 below, and the results of the calculation are shown in FIG. 6. The % intact RBC=100(%)−[(absorbance of peptide-treated red blood cell solution−absorbance of PBS-treated red blood cell solution)/(absorbance of Triton X-100-treated red blood cell solution−absorbance of PBS-treated red blood cell solution)×100(%)] [Equation 1]

[8] = Toxicity in vivo after intravenous injection; parameters: species or system mouse (C57BL/6); settings: 100 mg/kg intravenous
Procedure: At this time, the maximum volume of the injection dose was 150 μl.

Sequence: KTMMQSGGTFGTFMAIGMGIR [KU-5878]
- MBC value (μg/ml) against methicillin-resistant Staphylococcus aureus ([1]; ATCC 33591, 4 h): 100 µg/mL
- MBC MRSA [1]: 110 mg/L
- MBC MRSA ([1]; listed as 5878): 100 mg/L
- MBC value (μg/ml) against multidrug-resistant Pseudomonas aeruginosa [2]: 110 µg/mL
- MBC value (μg/ml), Multidrug-resistant A. baumannii [3]: 110 µg/mL
- MBC value (μg/ml), Multidrug-resistant K. pneumoniae [4]: 100 µg/mL
- number of bacteria remaining in the blood vessels of the mice [5]: most greatly decreased
- survival rate of the mice [6]: 60%
- hemolysis of red blood cells [7]: little hemolysis even at a high concentration
- survival of mice after injection ([8]; 12 days): all survived
- effect on the weight of the mice ([8]; weights at 24-hour intervals for 12 days, FIG. 7): no effect on the weight of the mice
